PMC12274739, “Differential substrate degradation by super-degron: EGFP in wild-type mouse cells, PD-1 requires CRBN humanization” (iScience, 2025)
“And” between values parts separate entries of the source, which are not always exact repeats. Equal values may be shown once. Read-outs that look alike come from different tables or passages of the source.

Key:
[1] = cited from earlier work
[2] = system: mouse PD-1-mCherry-IKZF full-length tag; settings: Jurkat, 24 h
[3] = target: SD-EGFP (Aequorea victoria, UniProt P42212, F64L/H231L/S65T); settings: rat ESCs, stable
[4] = target: EGFP-ZFP91 (UniProt P42212+Q8C7D2, F64L/H231L/INS1V/S65T); type: cell-based, mouse; settings: read-out: DC50, EGFP-ZFP91, stable
EGFP-ZFP91, sequence (Q8C7D2 whole entry, looked up, stated change not applied, other chains not shown): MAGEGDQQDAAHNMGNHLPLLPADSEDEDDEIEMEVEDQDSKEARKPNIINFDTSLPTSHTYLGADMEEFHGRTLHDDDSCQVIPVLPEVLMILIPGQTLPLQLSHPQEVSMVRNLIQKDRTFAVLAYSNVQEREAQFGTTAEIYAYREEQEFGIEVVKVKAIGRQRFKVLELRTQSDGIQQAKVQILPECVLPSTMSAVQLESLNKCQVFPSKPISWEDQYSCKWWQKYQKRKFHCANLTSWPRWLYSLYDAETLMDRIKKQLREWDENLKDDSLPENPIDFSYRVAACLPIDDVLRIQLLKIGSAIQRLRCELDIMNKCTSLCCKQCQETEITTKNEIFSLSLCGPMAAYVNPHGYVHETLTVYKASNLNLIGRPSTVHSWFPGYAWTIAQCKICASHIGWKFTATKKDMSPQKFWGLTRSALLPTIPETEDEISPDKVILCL

[5] = system: wild-type mESCs; assay: Proteome assay in wild-type mESCs with IBR; type: cell-based, mouse
From the text: Only SD was able to efficiently degrade EGFP even in the wild-type mouse cell lines. IKZF1/3 and several neo-substrates for CRBN were degraded in human cells but not in mouse cells, most likely because of the different amino acids in CRBN. However, the combination of SD and IBR or MZG degraded target proteins in both mouse and human cells. […] These 17 proteins are suspected to be novel substrates (data not shown). […] Moreover, general thalidomide analogs and CRBN have no neo-substrates in mouse cell lines.[25]

[6] = system: EGFP-SD; assay: Degradation of stably expressed EGFP-SD in rat ESCs
[7] = system: EGFP-SD; type: cell-based, mouse; settings: for ratio of bottom, mouse vs human cell line: EGFP-SD; for bottom vs top, EGFP-SD: IBR up to 1 μM
[8] = system: PD-1-SD; assay: Exogenous PD-1-SD degradation in mESCs; type: cell-based, mouse
Protocol: The dotted lines show an isotype control without IBR. […] The dotted lines show an isotype control without IBR. […] The black lines show isotype control without IBR. […] Red lines show the boundary between positive and negative. […] (B–J) IBR or solvent (−) was added to cultured splenocytes (B–G) or mESCs (H–J). […] The concentration is 0.1 μM in the rightmost bar in each group, and the left neighbor is a step dilution of one-tenth. Intensities of anti-PD-1-FITC on CD4^+ and CD8^+ T cells were measured by flow cytometry, and the geometric means of fluorescence intensities (MFI) were calculated. The MFI of the isotype control of anti-PD-1-FITC was subtracted from each MFI of anti-PD-1-FITC. The dots indicate the results of the experiment for each of the three samples from different individuals.
To determine whether the same phenomenon occurs in non-T cells, exogenous PD-1 degradation was examined in mESCs transfected with PD-1-SD expression vectors (Figures 6H–6J and S6E). […] We hypothesized that the degradation efficiency of membrane-localized proteins might be reduced in mouse-type CRBNs. Therefore, we expressed EGFP-SDs with membrane-localized peptides attached to their N-termini in mESCs and added IBR. The degradation efficiency of EGFP-SD with membrane-localization peptide[32] […] Therefore, Pdcd1^SD/SD/Crbn^I391V/I391V mice were used for further analyses.

Nc1cccc2c1C(=O)N(C1CCC(=O)NC1=O)C2=O (stereo not drawn) [POM, pomalidomide]
blood-brain barrier (BBB) passage [1]: passes through the BBB | Bottom, mCherry (mC) ([2]; mCherry, no reagent = 1): 0.6165 | Bottom, PD-1 (FITC) ([2]; surface PD-1, no reagent = 1): 0.32 and 0.3218

O=C1CC[C@H](N2Cc3c(OCc4ccc(CN5CCOCC5)cc4)cccc3C2=O)C(=O)N1 [IBR, iberdomide]
Bottom, SD-EGFP [3]: 0.01454 | bottom vs top, SD-EGFP ([3]; IBR up to 1 μM): 0.057 | DC50 ([3]; read-out: DC50, SD-EGFP): 0.271 nM | DC50 ([4]; B6J-S1 mESCs, Figure 5B): 20.9 nM | DC50 ([4]; CrbnI391V/I391V mESCs, Figure 5E): 0.834 nM | downregulation of 11 EGFP-bound candidate proteins ([5]; exogenously expressed in mESCs): none of them were downregulated by IBR | number of proteins with reduced expression ([5]; wild-type mESCs, proteome assay, data not shown): 17 | DC50 ([6]; read-out: DC50, EGFP-SD, stable): 0.14 nM | Bottom, EGFP-SD ([6]; stable): 0.0497 | bottom vs top, EGFP-SD ([6]; stable, IBR up to 1 μM): 0.083 | ratio of bottom, mouse vs human cell line ([7]; EL4 vs Jurkat): 1.804 | ratio of bottom, mouse vs human cell line ([7]; NIH3T3 vs HEK293): 3.605 | Bottom, EGFP-SD ([7]; EL4, stable): 0.04356 | DC50 ([7]; EL4, stable): 0.0755 nM | bottom vs top, EGFP-SD ([7]; EL4, stable): 0.057 | Bottom, EGFP-SD ([7]; NIH3T3, stable): 0.03706 | DC50 ([7]; NIH3T3, stable): 0.079 nM | bottom vs top, EGFP-SD ([7]; NIH3T3, stable): 0.049 | Bottom, EGFP-SD ([7]; mouse ESCs, stable): 0.02573 | DC50 ([7]; mouse ESCs, stable): 0.221 nM | bottom vs top, EGFP-SD ([7]; mouse ESCs, stable): 0.085 | level to which EGFP-SD was suppressed ([7]; mouse wild-type cell lines, IBR approximately 10^−2 μM to 10^−3 μM): 10% | PD-1 degradation ([8]; Crbn+/+ mESCs transfected with PD-1-SD): barely degraded | PD-1 degradation ([8]; CrbnI391V/I391V mESCs transfected with PD-1-SD): degraded
